The source of these data is patent publication US6342494B1, “Carbapenem compounds, use thereof, and intermediate compounds of the same” (Kyoto Pharmaceutical Industries, Ltd., priority 1997, dated 2002).

The conditions of data set [1]: dogs, 20 mg/kg oral, measured as hydrolyzed carbapenem compound (A). The protocol:
The compound of the present invention (compound of Example 6, 20 mg/kg) was orally administered to dogs (3 per group) and urinary hydrolyzed carbapenem compound (A) concentration at 0-3, 3-6 and 6-24 hours later was measured by a paper disc method using test bacteria Escherichia coli NIHJ and nutrient agar medium (Difco). The urinary recovery percentage was determined.

For data set [2] the following is noted: dogs, 20 mg/kg oral, measured as hydrolyzed carbapenem compound (A). As to the method:
The compound of the present invention (compound of Example 6, 20 mglkg) was orally administered to dogs (3 per group) and plasma hydrolyzed carbapenem compound (A) concentration at 0.25, 0.5, 1.0, 1.5, 2.0, 3.0, 4.0 and 6.0 hours later was measured by a paper disc method using test bacteria Escherichia coli NIHJ and nutrient agar medium (Difco).
This is another data set of the same source.

`Cc1oc(=O)oc1CN1C[C@@H](SC2=C(C(=O)OCOC(=O)C(C)(C)C)N3C(=O)[C@H]([C@@H](C)O)[C@H]3[C@H]2C)C[C@H]1C(=O)N(C)C.Cl` [Example 6, Pivaloyloxymethyl (1R,5S,6S)-2-{(3S,5S)-[5-N,N-dimethylaminocarbonyl-1-(5-methyl-2-oxo-1,3-dioxolen-4-yl)methyl]pyrrolidin-3-ylthio}-6-[(1R)-1-hydroxyethyl]-1-methylcarbapen-2-em-3-carboxylate hydrochloride]: the “urinary recovery (%) 0-3 hr” value in data set [1] (0-3 hr) was 10.3%. For the same compound, the “urinary recovery (%) 0-24 hr” value in data set [1] (0-24 hr) was 13.0%. Also, the “urinary recovery (%) 3-6 hr” value in data set [1] (3-6 hr) came to 2.4%. The “urinary recovery (%) 6-24 hr” value in data set [1] (6-24 hr) worked out at 0.3%. The “concentration in plasma (μg/ml) 0.25 hr” value in data set [2] (0.25 hr) was 5.06 µg/mL. For the same compound, the “concentration in plasma (μg/ml) 0.5 hr” value in data set [2] (0.5 hr) was determined as 6.56 µg/mL. Also, in data set [2] (1.0 hr), the “concentration in plasma (μg/ml) 1.0 hr” value amounted to 7.60 µg/mL. Also, in data set [2] (1.5 hr), the “concentration in plasma (μg/ml) 1.5 hr” value stood at 7.67 µg/mL. The “concentration in plasma (μg/ml) 2.0 hr” value in data set [2] (2.0 hr) was 5.92 µg/mL. Moreover, in data set [2] (3.0 hr), the “concentration in plasma (μg/ml) 3.0 hr” value is 3.68 µg/mL. Besides, in data set [2] (4.0 hr), the “concentration in plasma (μg/ml) 4.0 hr” value is 1.92 µg/mL. For the same compound, the “concentration in plasma (μg/ml) 6.0 hr” value in data set [2] (6.0 hr) came to 0.43 µg/mL.
